Data taken from ChEMBL document CHEMBL1159314, “Eupha-7,9(11),24-trien-3beta-ol ("antiquol C") and other triterpenes from Euphorbia antiquorum latex and their inhibitory effects on Epstein-Barr virus activation” (J Nat Prod, 2002).

Tests used:
Assay type in all cases: cell-based
Raji [1] = assay: Inhibition of TPA-induced EBV-early antigen activation in human Raji cells at 1000 molar ratio after 48 hrs relative to TPA; parameters: scale not given: the % may be the effect or the level left; conditions: human gammaherpesvirus 4
Raji [2] = assay: Inhibition of TPA-induced EBV-early antigen activation in human Raji cells at 10 molar ratio after 48 hrs relative to TPA; parameters: scale not given: the % may be the effect or the level left; conditions: human gammaherpesvirus 4
[3] = Cytotoxicity against human Raji cells assessed as cell viability at 1000 molar ratio after 48 hrs by trypan blue assay; conditions: read-out: Activity
Raji [4] = assay: Inhibition of TPA-induced EBV-early antigen activation in human Raji cells at 100 molar ratio after 48 hrs relative to TPA; parameters: scale not given: the % may be the effect or the level left; conditions: human gammaherpesvirus 4
Raji [5] = assay: Inhibition of TPA-induced EBV-early antigen activation in human Raji cells at 500 molar ratio after 48 hrs relative to TPA; parameters: scale not given: the % may be the effect or the level left; conditions: human gammaherpesvirus 4

| SMILES | Activity (Raji [1]) | Activity (Raji [2]) | viability at 48 h, 1000 molar ratio [3] | Activity (Raji [4]) | Activity (Raji [5]) |
| --- | --- | --- | --- | --- | --- |
| CC(C)=CCC[C@@H](C)[C@@H]1CC[C@]2(C)C3=CC[C@H]4C(C)(C)[C@@H](O)CC[C@]4(C)C3=CC[C@@]12C [ANTIQUOL C] | 0% | 92.8% | 70% | 75% | 28.2% |
| CC(C)=CCC[C@]1(C)CC[C@]2(C)C3=CC[C@H]4C(C)(C)[C@@H](O)CC[C@]4(C)[C@H]3CC[C@@]2(C)C1 | 2.2% | 97.2% | 70% | 79.4% | 33.8% |
| CC(C)=CCC/C(C)=C/CC/C(C)=C/CC/C=C(\C)CC[C@@H]1C(C)=CC[C@H](O)C1(C)C [CAMELLIOL C] | 20.1% | 100% | 70% | 86.3% | 51.5% |
| CC(C)=CCC[C@@H](C)[C@@H]1CC[C@]2(C)[C@H]3CCC(=C(C)C)[C@@H](CCCO)[C@]3(C)CC[C@@]12C [ISOHELIANOL] | 0% | 95.7% | 70% | 72.4% | 25.8% |
| CC(C)=CCC[C@@H](C)[C@@H]1CC[C@]2(C)C3=C(CC[C@@]12C)[C@@]1(C)CC[C@H](O)C(C)(C)[C@@H]1CC3 [EUPHOL] | 0% | 93.5% | 70% | 75.7% | 29.8% |
| C=C(CC[C@H](C)[C@@H]1CC[C@]2(C)C3=C(CC[C@@]12C)[C@@]1(C)CC[C@H](O)C(C)(C)[C@@H]1CC3)C(C)C [EUPHORBOL] | 0% | 95.8% | 70% | 77.9% | 32.6% |
| CC1=C(/C=C/C(C)=C/C=C/C(C)=C/C=C/C=C(C)/C=C/C=C(C)/C=C/C2=C(C)CCCC2(C)C)C(C)(C)CCC1 | 8.6% | 100% | – | – | – |
